Measurements as given in US20140178898A1, “Method for Detecting Fat-Reducing Compounds” (National Central University, priority 2012, published 2014).

Experiments:
Format in all cases: cell-based
3T3-L1 adipocytes [1] = assay: 2-deoxyglucose (2-DOG) uptake assay, EGCG alone
Procedure: (§1) In the first step (S1), which provides a clone of adipocytes to be cultured on a culture dish, the adipocytes are 3T3-L1 adipocytes (American Type Culture Collection, Manassas, Va.). 3T3-L1 adipocytes are differentiated from 3T3-L1 preadipocytes. To obtain the adipocytes, preadipocytes are seeded at a number of 6×10^4 cells per well on a sterile 12-well plate. After 3 and 5 days of the plating, the medium is changed and replaced with a new medium containing a differentiation agent, respectively. Day 0 of differentiating cells is set at the day when the differentiating agent is added in the beginning. The medium is the Dulbecco's Modified Eagle's Medium (DMEM) containing 10% fetal bovine serum (FBS), 100 U/ml of penicillin, and 100 μg/ml streptomycin. The differentiation agent is a cocktail solution containing a final concentration of 0.5 mM 3-Isobutyl-1-methylxanthine (IBMX), 5 μg/ml insulin, and 1 μM dexamethasone (DEX). After the 2-day incubation of the differentiation agent, the medium is changed to DMEM containing 10% FBS and 5 μg/ml insulin for an additional 4 days, and it is replaced with a new medium every 2 days. Day 6 differentiating cells are grown in DMEM containing 10% FBS for an additional 4 days. The medium is changed every 2 days. A total of 10 days is used for the process of differentiation to obtain the differentiated adipocytes and the cells are used for later experiments.
(§2) The first example of the present invention is to show a use of 2-deoxyglucose uptake assay for detecting the transportation activity of glucose transporter protein in the adipocytes (FIG. 2). This purpose is also to clarify the effect of different concentrations of EGCG on the IGF-I-induced and IGF-II-induced glucose uptake. At the first, the different concentrations of EGCG are added into the adipocytes, such as 1, 2, 5, 10, 20 and 50 μM. The duration of the EGCG pretreatment is defined as a first time and it is 120 minutes, wherein the first time period can range from 30 to 120 minutes, but it is not limited thereto. Then, the exposed time of 10 minutes to 10 nM IGF-I or 10 nM IGF-II is defined as a second time, wherein the second time can be 5 minutes shorter or last for 30 minutes, but it is not limited thereto. […] Then, 500 μl of RadioImmunoPrecipitation Assay (RIPA) buffer is added for fracturing the cells; 450 μl of cell solution is collected to evenly mix with 4 ml of scintillation liquid in a vial for a detection of radioactivity through a β-counter.
This invention provides a second example for clarifying the time course effects of EGCG on the IGF-stimulated glucose uptake in adipocytes (FIG. 3). […] After the incubation, the radioactivity is measured to indicate the transportation activity of glucose transporter protein in the adipocytes.

3T3-L1 adipocytes [2] = assay: 2-deoxyglucose (2-DOG) uptake assay, IGF-II-stimulated glucose uptake
Procedure: (§3) In the first step (S1), which provides a clone of adipocytes to be cultured on a culture dish, the adipocytes are 3T3-L1 adipocytes (American Type Culture Collection, Manassas, Va.). 3T3-L1 adipocytes are differentiated from 3T3-L1 preadipocytes. To obtain the adipocytes, preadipocytes are seeded at a number of 6×10^4 cells per well on a sterile 12-well plate. After 3 and 5 days of the plating, the medium is changed and replaced with a new medium containing a differentiation agent, respectively. Day 0 of differentiating cells is set at the day when the differentiating agent is added in the beginning. […]
The first example of the present invention is to show a use of 2-deoxyglucose uptake assay for detecting the transportation activity of glucose transporter protein in the adipocytes (FIG. 2). […] Then, 500 μl of RadioImmunoPrecipitation Assay (RIPA) buffer is added for fracturing the cells; 450 μl of cell solution is collected to evenly mix with 4 ml of scintillation liquid in a vial for a detection of radioactivity through a β-counter.
(§4) This invention provides a second example for clarifying the time course effects of EGCG on the IGF-stimulated glucose uptake in adipocytes (FIG. 3). […] After the incubation, the radioactivity is measured to indicate the transportation activity of glucose transporter protein in the adipocytes. […]

[3] = tested on: glucose transporter 4 (GLUT4); assay: Western blotting of GLUT4 protein in adipocyte fractions (translocation); conditions: for GLUT4 protein levels in the plasma membrane of adipocytes: IGF at 10 nM (FIGS. 5B, 6B); for GLUT4 expression levels in the low-density microsome: IGF at 10 nM (FIGS. 5C, 6C)
Procedure: as §1
In the fourth step (S4), which collects the adipocytes for a detection of the expression level of at least one specific protein to be a reference value (i.e. an indicator) for reducing fat or for decreasing the glucose transport by the test compound, the specific proteins are glucose transporter 1 (GLUT1) and glucose transporter 4 (GLUT4) proteins (FIGS. 5 and 6). Levels of GLUT1 and GLUT4 protein expression in the total lysate, plasma membrane, and low-density microsome are analyzed by Western blotting. FIGS. 5A, 5B and 5C are presented when the culture medium is added with or without IGF-I; whereas, in FIGS. 6A, 6B and 6C, IGF-II is added to the culture medium.

3T3-L1 adipocytes [4] = assay: 2-deoxyglucose (2-DOG) uptake assay, IGF-I-stimulated glucose uptake; conditions: for IGF-I-stimulated increases in levels of adipocyte glucose uptake: then 10 nM IGF-I 10 minutes (FIG. 2A)
Procedure: as §1, §2, §4

[5] = tested on: glucose transporter 1 (GLUT1); assay: Western blotting of GLUT1 protein in adipocyte fractions; conditions: EGCG in the presence and absence of IGF-I and IGF-II (FIGS. 5A, 6A)
Procedure: as §3, with “beginning. The medium is the Dulbecco's Modified Eagle's Medium (DMEM) containing 10% fetal bovine serum (FBS), 100 U/ml of penicillin, and 100 μg/ml streptomycin.” for “beginning.”
In the fourth step (S4), which collects the adipocytes for a detection of the expression level of at least one specific protein to be a reference value (i.e. an indicator) for reducing fat or for decreasing the glucose transport by the test compound, the specific proteins are glucose transporter 1 (GLUT1) and glucose transporter 4 (GLUT4) proteins (FIGS. 5 and 6). Levels of GLUT1 and GLUT4 protein expression in the total lysate, plasma membrane, and low-density microsome are analyzed by Western blotting. […]

Substance: (−)-epigallocatechin gallate [EGCG]
- level of adipocyte glucose uptake (3T3-L1 adipocytes [1]; 20 μM EGCG alone, 0.5, 1, or 2 hours (FIG. 3A)): not
- level of adipocyte glucose uptake (3T3-L1 adipocytes [1]; 20 μM EGCG alone, 4 hours (FIG. 3A)): significantly altered
- adipocyte glucose uptake (3T3-L1 adipocytes [1]; EGCG alone at 50 μM, 2 hours (FIG. 2A)): significantly decreased
- glucose uptake in the adipocytes (3T3-L1 adipocytes [1]; EGCG alone at 1, 2, 5, 10, and 20 μM, 2 hours of treatment (FIG. 2A)): does not alter
- increase in the level of adipocyte glucose uptake induced by IGF-II (3T3-L1 adipocytes [2]; 0.5, 1, 2, and 4 hours after 20 μM EGCG pretreatment, 10 nM IGF-II): significantly reduced
- IGF-II-increased levels of glucose uptake in adipocytes (3T3-L1 adipocytes [2]; EGCG at 10, 20, and 50 μM, 2-hour pretreatment, 10 nM IGF-II (FIG. 2B)): suppress
- levels of GLUT4 protein in the total lysate of the adipocytes ([3]; EGCG in the presence and absence of IGF-I and IGF-II (FIGS. 5A, 6A)): not altered
- IGF-increased levels of GLUT-4 protein in the plasma membrane ([3]; EGCG in the presence of IGF-I (FIG. 5B)): inhibits
- IGF-decreased levels of GLUT-4 protein in the low-density microsome ([3]; EGCG in the presence of IGF-I (FIG. 5C)): blocked
- IGF-increased levels of GLUT-4 protein in the plasma membrane ([3]; EGCG in the presence of IGF-II (FIG. 6B)): inhibits
- IGF-decreased levels of GLUT-4 protein in the low-density microsome ([3]; EGCG in the presence of IGF-II (FIG. 6C)): blocked
- translocation of GLUT4 from the cytosol to plasma membrane of the adipocytes induced by IGF treatment ([3]; FIGS. 5B, 5C, 6B and 6C): inhibited
- GLUT-4 protein levels in the low-density microsome ([3]; pretreatment with EGCG alone): does not change
- GLUT-4 protein levels in the plasma membrane ([3]; pretreatment with EGCG alone): does not change
- IGF-I-increased levels of adipocyte glucose uptake (3T3-L1 adipocytes [4]; 20 μM EGCG pretreatment for 0.5 hours, suppressive effect lasts for 4 hours, 10 nM IGF-I): inhibits
- IGF-I-increased level of adipocyte glucose uptake (3T3-L1 adipocytes [4]; 20 μM EGCG, 2-hour treatment, 10 nM IGF-I): decline to the corresponding level of glucose uptake to the control
- IGF-I-stimulated increases in levels of adipocyte glucose uptake (3T3-L1 adipocytes [4]; 2-hour pretreatment with 1, 2, or 5 μM EGCG): not
- IGF-I-stimulated increases in levels of adipocyte glucose uptake (3T3-L1 adipocytes [4]; 2-hour pretreatment with 10, 20, and 50 μM EGCG): suppresses
- levels of GLUT1 protein in the total lysate of the adipocytes [5]: not altered

Substance: IGF-I: insulin-like growth factor I, added to adipocytes at 10 nM
- GLUT4 protein levels in the plasma membrane of adipocytes [3]: significantly increase
- GLUT4 expression levels in the low-density microsome [3]: decrease

Substance: IGF-II: insulin-like growth factor II, added to adipocytes at 10 nM
- GLUT4 protein levels in the plasma membrane of adipocytes [3]: significantly increase
- GLUT4 expression levels in the low-density microsome [3]: decrease
